IC50 and kinase still bound, per cent of control data for 17 molecules are collected here from the kinase profiling compilation of Christmann-Franck et al. (2016).

Molecules are shown by their SMILES.

In experiment [1] the target is HIPK1 (human) (UniProt Q86Z02). Put plainly: SelectScreen, TR FRET.
The next experiment deals with HIPK2 (human) (UniProt Q9H2X6). Put plainly: SelectScreen, TR FRET. (In TR-FRET formats the signal depends on donor and acceptor labels being close together.)
Another experiment concerns the target PTK2B (human) (UniProt Q14289). As to the kind of experiment: KINOMEscan competition binding. The conditions noted are these: compound 10.0 µM.
The next experiment deals with CAMK2G (human) (UniProt Q13555). As to the kind of experiment: KINOMEscan competition binding. As to conditions: compound 10.0 µM.
The target of the next experiment is DCLK2 (human) (UniProt Q8N568). As to the kind of experiment: KINOMEscan competition binding. The conditions noted are these: compound 10.0 µM.
A further experiment concerns the target STK33 (human) (UniProt Q9BYT3). Put plainly: KINOMEscan competition binding. The conditions noted are these: compound 10.0 µM.
For another experiment, the target named is CAMK2A (human) (UniProt Q9UQM7). Put plainly: KINOMEscan competition binding. The conditions noted are these: compound 10.0 µM.
The next experiment addresses CAMK2D (human) (UniProt Q13557). As to the kind of experiment: KINOMEscan competition binding. The conditions noted are these: compound 10.0 µM.
The target in a further experiment is DCLK1 (human) (UniProt O15075). As to the kind of experiment: KINOMEscan competition binding. As to conditions: compound 10.0 µM.
The target in experiment [2] is PIM2 (human) (UniProt Q9P1W9). Put plainly: KINOMEscan competition binding. The conditions noted are these: compound 10.0 µM.
The target in the next experiment is PIK3CG (human) (UniProt P48736). As to the kind of experiment: KINOMEscan competition binding. As to conditions: compound 10.0 µM.
Experiment [3] has as its target PIM1 (human) (UniProt P11309). As to the kind of experiment: KINOMEscan competition binding. As to conditions: compound 10.0 µM.
The next experiment deals with CSNK2A2 (human) (UniProt P19784). As to the kind of experiment: KINOMEscan competition binding. The conditions noted are these: compound 10.0 µM.
For the next experiment, the target named is STK17A (human) (UniProt Q9UEE5). As to the kind of experiment: KINOMEscan competition binding. As to conditions: compound 10.0 µM.
The target of the next experiment is PIM3 (human) (UniProt Q86V86). Put plainly: KINOMEscan competition binding. As to conditions: compound 10.0 µM.
In experiment [4] the test system is PIK3CA (human), P42336 [E545K]. Put plainly: KINOMEscan competition binding. As to conditions: compound 10.0 µM.
The next experiment has as its target MAPK15 (human) (UniProt Q8TD08). As to the kind of experiment: KINOMEscan competition binding. The conditions noted are these: compound 10.0 µM.
For the next experiment, the target named is STK17B (human) (UniProt O94768). As to the kind of experiment: KINOMEscan competition binding. As to conditions: compound 10.0 µM.
The next experiment has as its target CDK7 (human) (UniProt P50613). As to the kind of experiment: KINOMEscan competition binding. The conditions noted are these: compound 10.0 µM.
The target of the next experiment is RPS6KA4 KD2 (human) (UniProt O75676). Put plainly: KINOMEscan competition binding. The conditions noted are these: compound 10.0 µM.
The target of a further experiment is MINK1 (human) (UniProt Q8N4C8). As to the kind of experiment: KINOMEscan competition binding. As to conditions: compound 10.0 µM.
The target in experiment [5] is HIPK1 (human) (UniProt Q86Z02). As to the kind of experiment: KINOMEscan competition binding. As to conditions: compound 10.0 µM.
Another experiment concerns the target TGFBR2 (human) (UniProt P37173). Put plainly: KINOMEscan competition binding. As to conditions: compound 10.0 µM.
Experiment [6] addresses PIM2 (human) (UniProt Q9P1W9). Put plainly: SelectScreen, TR FRET.
In experiment [7] the target is PIM1 (human) (UniProt P11309). Put plainly: SelectScreen, TR FRET.
The target of a further experiment is MYLK (human) (UniProt Q15746). Put plainly: KINOMEscan competition binding. As to conditions: compound 10.0 µM.
The target of another experiment is MKNK2 (human) (UniProt Q9HBH9). As to the kind of experiment: KINOMEscan competition binding. As to conditions: compound 10.0 µM.
In another experiment the target is PLK1 (human) (UniProt P53350). Put plainly: KINOMEscan competition binding. As to conditions: compound 10.0 µM.
For a further experiment, the target named is MAP2K3 (human) (UniProt P46734). Put plainly: KINOMEscan competition binding. As to conditions: compound 10.0 µM.
For a further experiment, the target named is MAP2K4 (human) (UniProt P45985). As to the kind of experiment: KINOMEscan competition binding. The conditions noted are these: compound 10.0 µM.
The next experiment deals with CAMKK2 (human) (UniProt Q96RR4). As to the kind of experiment: KINOMEscan competition binding. As to conditions: compound 10.0 µM.
A further experiment addresses CLK2 (human) (UniProt P49760). As to the kind of experiment: KINOMEscan competition binding. As to conditions: compound 10.0 µM.
The next experiment addresses CLK1 (human) (UniProt P49759). Put plainly: KINOMEscan competition binding. The conditions noted are these: compound 10.0 µM.
The next experiment addresses CSNK2A1 (human) (UniProt P68400). As to the kind of experiment: KINOMEscan competition binding. As to conditions: compound 10.0 µM.
Another experiment deals with TAOK1 (human) (UniProt Q7L7X3). As to the kind of experiment: KINOMEscan competition binding. The conditions noted are these: compound 10.0 µM.
For another experiment, the target named is TAOK3 (human) (UniProt Q9H2K8). As to the kind of experiment: KINOMEscan competition binding. The conditions noted are these: compound 10.0 µM.
The target in another experiment is DAPK2 (human) (UniProt Q9UIK4). As to the kind of experiment: KINOMEscan competition binding. As to conditions: compound 10.0 µM.
For the next experiment, the target named is CAMKK1 (human) (UniProt Q8N5S9). As to the kind of experiment: KINOMEscan competition binding. As to conditions: compound 10.0 µM.
The target in the next experiment is DYRK1B (human) (UniProt Q9Y463). Put plainly: KINOMEscan competition binding. As to conditions: compound 10.0 µM.
The target of the next experiment is CLK4 (human) (UniProt Q9HAZ1). Put plainly: KINOMEscan competition binding. The conditions noted are these: compound 10.0 µM.

Sequence of PIM1 (human) (P11309 whole entry, looked up): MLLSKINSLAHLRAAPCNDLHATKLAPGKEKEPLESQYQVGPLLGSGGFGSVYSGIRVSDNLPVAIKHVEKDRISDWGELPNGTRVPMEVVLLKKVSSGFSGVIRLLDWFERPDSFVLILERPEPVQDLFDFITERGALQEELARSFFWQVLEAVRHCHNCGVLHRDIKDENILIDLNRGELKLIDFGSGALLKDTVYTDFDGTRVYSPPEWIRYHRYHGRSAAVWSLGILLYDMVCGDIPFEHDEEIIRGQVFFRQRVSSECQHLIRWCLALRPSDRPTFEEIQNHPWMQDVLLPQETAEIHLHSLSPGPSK
Sequence of PIK3CA (human), P42336 [E545K] (P42336 whole entry E545K, looked up): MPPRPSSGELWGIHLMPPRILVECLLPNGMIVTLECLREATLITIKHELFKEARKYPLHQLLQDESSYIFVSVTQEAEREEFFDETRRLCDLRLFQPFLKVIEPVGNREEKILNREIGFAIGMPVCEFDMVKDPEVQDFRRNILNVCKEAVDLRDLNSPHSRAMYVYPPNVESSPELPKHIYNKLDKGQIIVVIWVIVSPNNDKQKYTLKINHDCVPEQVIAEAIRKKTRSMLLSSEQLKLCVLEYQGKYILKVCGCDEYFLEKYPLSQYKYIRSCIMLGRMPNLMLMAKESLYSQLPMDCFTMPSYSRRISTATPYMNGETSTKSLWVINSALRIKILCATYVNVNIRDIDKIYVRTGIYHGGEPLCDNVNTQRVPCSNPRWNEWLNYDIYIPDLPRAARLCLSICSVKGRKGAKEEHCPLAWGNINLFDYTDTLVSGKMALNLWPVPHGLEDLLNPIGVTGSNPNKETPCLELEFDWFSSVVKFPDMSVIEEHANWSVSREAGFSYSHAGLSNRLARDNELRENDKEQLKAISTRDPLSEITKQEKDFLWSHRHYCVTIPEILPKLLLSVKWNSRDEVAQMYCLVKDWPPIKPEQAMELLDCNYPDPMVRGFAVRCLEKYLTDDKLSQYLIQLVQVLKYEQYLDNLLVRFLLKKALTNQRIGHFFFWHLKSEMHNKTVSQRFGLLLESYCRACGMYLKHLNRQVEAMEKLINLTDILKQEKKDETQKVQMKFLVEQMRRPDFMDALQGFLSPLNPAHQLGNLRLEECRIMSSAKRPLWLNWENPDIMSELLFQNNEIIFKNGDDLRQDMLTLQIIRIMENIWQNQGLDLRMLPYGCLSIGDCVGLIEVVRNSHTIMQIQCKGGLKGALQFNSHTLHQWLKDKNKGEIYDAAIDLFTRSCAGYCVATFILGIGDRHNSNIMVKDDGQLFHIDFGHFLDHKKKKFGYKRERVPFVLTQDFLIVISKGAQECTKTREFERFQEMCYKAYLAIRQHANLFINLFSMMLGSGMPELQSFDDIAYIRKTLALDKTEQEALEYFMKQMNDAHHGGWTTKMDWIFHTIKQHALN
Sequence of PIM2 (human) (Q9P1W9 whole entry, looked up): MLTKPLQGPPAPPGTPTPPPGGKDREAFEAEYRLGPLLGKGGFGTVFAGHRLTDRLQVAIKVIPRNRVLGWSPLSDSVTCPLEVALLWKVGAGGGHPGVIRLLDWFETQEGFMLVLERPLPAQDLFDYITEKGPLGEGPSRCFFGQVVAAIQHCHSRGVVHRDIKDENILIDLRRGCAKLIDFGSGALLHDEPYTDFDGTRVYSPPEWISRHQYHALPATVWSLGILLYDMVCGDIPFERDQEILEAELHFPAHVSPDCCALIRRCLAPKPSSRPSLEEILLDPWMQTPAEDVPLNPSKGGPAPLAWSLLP
Sequence of HIPK2 (human) (Q9H2X6 whole entry, looked up): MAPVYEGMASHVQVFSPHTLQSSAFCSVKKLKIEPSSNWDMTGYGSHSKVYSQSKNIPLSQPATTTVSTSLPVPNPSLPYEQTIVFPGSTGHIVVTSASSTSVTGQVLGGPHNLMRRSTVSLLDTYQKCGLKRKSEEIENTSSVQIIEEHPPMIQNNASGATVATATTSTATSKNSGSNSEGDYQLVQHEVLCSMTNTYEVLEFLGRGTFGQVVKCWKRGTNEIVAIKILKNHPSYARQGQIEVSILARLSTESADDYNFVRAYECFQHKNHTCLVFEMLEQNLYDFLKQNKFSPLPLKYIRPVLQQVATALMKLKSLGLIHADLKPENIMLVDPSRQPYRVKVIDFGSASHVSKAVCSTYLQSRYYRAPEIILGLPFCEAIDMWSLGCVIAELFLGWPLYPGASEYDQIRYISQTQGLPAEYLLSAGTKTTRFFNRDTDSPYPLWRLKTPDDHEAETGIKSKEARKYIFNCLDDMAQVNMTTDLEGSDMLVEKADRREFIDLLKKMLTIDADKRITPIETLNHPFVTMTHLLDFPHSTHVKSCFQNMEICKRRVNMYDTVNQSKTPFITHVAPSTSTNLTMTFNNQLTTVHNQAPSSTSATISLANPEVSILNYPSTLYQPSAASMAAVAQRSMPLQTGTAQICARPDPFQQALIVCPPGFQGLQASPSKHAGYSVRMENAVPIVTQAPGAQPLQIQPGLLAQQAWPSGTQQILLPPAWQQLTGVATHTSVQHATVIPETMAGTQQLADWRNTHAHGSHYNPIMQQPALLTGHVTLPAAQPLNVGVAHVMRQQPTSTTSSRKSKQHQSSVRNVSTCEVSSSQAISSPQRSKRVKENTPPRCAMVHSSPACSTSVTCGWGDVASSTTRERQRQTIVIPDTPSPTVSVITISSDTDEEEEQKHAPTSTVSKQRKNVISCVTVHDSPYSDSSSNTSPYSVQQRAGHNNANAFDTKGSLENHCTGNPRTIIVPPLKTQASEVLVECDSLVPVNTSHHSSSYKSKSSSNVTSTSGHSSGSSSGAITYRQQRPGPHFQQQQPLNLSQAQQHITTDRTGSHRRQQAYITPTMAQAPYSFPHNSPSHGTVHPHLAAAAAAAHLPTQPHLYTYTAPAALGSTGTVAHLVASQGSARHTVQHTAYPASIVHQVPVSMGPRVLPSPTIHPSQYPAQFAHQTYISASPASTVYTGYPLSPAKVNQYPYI
Sequence of HIPK1 (human) (Q86Z02 whole entry, looked up): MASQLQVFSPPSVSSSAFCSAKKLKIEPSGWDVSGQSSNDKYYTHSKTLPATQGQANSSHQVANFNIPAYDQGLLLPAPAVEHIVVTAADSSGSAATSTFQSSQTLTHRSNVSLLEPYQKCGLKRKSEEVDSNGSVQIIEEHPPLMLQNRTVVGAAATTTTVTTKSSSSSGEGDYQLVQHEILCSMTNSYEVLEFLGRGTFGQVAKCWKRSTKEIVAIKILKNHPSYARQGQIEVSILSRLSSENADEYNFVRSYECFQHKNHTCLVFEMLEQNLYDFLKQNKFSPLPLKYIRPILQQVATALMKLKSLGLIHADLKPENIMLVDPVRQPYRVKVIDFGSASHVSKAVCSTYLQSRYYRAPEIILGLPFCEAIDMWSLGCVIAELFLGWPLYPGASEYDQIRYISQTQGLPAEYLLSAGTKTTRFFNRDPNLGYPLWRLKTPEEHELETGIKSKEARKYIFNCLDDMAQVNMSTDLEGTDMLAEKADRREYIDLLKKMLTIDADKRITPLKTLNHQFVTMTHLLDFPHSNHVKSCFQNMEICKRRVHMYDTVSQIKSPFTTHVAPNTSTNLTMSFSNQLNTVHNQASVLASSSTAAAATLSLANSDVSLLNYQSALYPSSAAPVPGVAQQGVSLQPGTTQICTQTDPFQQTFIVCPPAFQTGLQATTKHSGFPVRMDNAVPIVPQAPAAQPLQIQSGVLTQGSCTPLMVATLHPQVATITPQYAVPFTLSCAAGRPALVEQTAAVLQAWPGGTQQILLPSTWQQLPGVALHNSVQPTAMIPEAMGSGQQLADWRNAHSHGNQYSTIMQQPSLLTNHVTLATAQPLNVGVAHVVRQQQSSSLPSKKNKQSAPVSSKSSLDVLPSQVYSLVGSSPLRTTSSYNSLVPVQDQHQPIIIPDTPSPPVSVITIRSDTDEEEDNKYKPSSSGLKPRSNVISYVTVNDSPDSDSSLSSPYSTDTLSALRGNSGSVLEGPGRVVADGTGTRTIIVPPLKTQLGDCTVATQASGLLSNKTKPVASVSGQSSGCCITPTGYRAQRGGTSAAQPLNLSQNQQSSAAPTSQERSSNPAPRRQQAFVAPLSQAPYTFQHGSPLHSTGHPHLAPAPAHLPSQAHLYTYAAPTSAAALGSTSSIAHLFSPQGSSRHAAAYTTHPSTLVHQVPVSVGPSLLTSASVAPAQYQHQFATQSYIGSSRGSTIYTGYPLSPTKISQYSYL
Sequence of CAMK2D (human) (Q13557 whole entry, looked up): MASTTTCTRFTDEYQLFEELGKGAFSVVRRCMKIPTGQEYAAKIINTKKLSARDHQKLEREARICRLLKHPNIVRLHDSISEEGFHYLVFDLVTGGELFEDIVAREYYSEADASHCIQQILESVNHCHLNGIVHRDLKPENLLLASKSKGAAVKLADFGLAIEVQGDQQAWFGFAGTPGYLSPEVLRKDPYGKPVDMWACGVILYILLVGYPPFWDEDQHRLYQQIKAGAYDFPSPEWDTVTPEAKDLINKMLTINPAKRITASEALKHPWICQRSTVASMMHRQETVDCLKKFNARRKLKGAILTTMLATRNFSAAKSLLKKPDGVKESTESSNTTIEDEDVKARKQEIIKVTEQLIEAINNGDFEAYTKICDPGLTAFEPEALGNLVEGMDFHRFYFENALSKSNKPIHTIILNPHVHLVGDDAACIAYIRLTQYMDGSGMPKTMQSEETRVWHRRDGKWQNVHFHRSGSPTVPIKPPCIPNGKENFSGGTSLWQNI

The term IC50 denotes the midpoint of a concentration-inhibition curve. Read a low IC50 as greater potency in that assay. In the case of `O=C1NC(=O)/C(=C/c2c[nH]c(=O)c(-c3cnc4ccccc4c3)c2)S1`, the figures for the IC50 on HIPK1 (human) [1] and against HIPK2 (human) were 228 nM and 178 nM, respectively.
For `CCN1C(=O)CC(C(C)C)N(C2CCCC2)c2nc(Nc3ccc(C(=O)NC4CCN(C)CC4)cc3OC)ncc21` (configuration not stated), the kinase still bound, per cent of control was determined as 34% at PTK2B (human); 16% at CAMK2G (human); 1.6% at DCLK2 (human); 31% on STK33 (human); 9.3% at CAMK2A (human); 23% on CAMK2D (human). Further, the kinase still bound, per cent of control at DCLK1 (human) came out at 0.9%.
Consider `O=C1NC(=O)/C(=C/c2c[nH]c(=O)c(-c3ccc(N4CCNCC4)nc3)c2)N1`, for which the IC50 on HIPK1 (human) [1] and at HIPK2 (human) was above 10000 nM throughout.
Regarding `O=C1NC(=O)/C(=C/c2c[nH]c(=O)c(-c3ccc(N4CCNCC4)cc3)c2)S1`, the IC50 against HIPK1 (human) [1] came to 52 nM; against HIPK2 (human), 45 nM.
The matching figures for `O=C1NC(=O)/C(=C/c2c[nH]c(=O)c(-c3ccc(N4CCC(N5CCCC5)CC4)nc3)c2)S1`: 6530 nM and 4900 nM.
The matching figures for `Nc1ccc(-c2cc(/C=C3\SC(=O)NC3=O)c[nH]c2=O)cn1`: 500 nM and 351 nM.
On to `CS(=O)(=O)Nc1ccc(-c2ccc(/C=C3\SC(=N)NC3=O)o2)c(O)c1`, for which the kinase still bound, per cent of control came to 0.45% at PIM2 (human) [2]; 1.6% at PIK3CG (human); 3.3% on PIM1 (human) [3]; 22% on CSNK2A2 (human); 25% at STK17A (human); 4.8% at PIM3 (human). In addition, the kinase still bound, per cent of control in experiment [4] worked out at 32%; on MAPK15 (human) it was 0.55%; on STK17B (human), 7.7%; on CDK7 (human) it was 0.9%; on RPS6KA4 KD2 (human), 30%; on MINK1 (human), 30%. Also, the kinase still bound, per cent of control is 22% on HIPK1 (human) [5] and 32% at TGFBR2 (human). In addition, the IC50 against PIM2 (human) [6] is 1920 nM; on PIM1 (human) [7] it was 768 nM.
As for `O=C1NC(=O)/C(=C/c2c[nH]c(=O)c(-c3cncc4ccccc34)c2)S1`, the IC50 at HIPK1 (human) [1] and against HIPK2 (human) was above 10000 nM each time.
`N=C1NC(=O)/C(=C/c2c[nH]c(=O)c(-c3cccc(N)c3)c2)S1`: the IC50 at HIPK1 (human) [1] was 317 nM; at HIPK2 (human), 163 nM.
Consider `CCN1C(=O)CC(c2ccccc2)N(C2CCCC2)c2nc(Nc3ccc(C(=O)NC4CCN(C)CC4)cc3OC)ncc21` (configuration not stated), for which the kinase still bound, per cent of control came to 26% on CAMK2G (human); 26% on MYLK (human); 20% at STK33 (human); 33% at MKNK2 (human); 20% at CAMK2A (human); 30% on CAMK2D (human). Moreover, the kinase still bound, per cent of control on PLK1 (human) was found to be 0.55%; on DCLK1 (human), 23%.
Take `O=C1NC(=O)C(=Cc2ccc(-c3ccc(Cl)cc3)o2)C(=O)N1`: the figures for the kinase still bound, per cent of control at MAP2K3 (human) and at MAP2K4 (human) were 15% and 14%, respectively.
For `CS(=O)(=O)Nc1ccc(-c2cc(/C=C3\SC(=O)NC3=O)c[nH]c2=O)cc1`, the IC50 against PIM2 (human) [6] came out at 214 nM; against PIM1 (human) [7] it was 151 nM; against HIPK1 (human) [1], 527 nM; against HIPK2 (human), 258 nM.
As for `CS(=O)(=O)Nc1ccc(-c2ccc(C=C3C(=O)NC(=O)NC3=O)o2)cc1`, the kinase still bound, per cent of control at CAMKK2 (human) was found to be 34%; in experiment [4] it was 20%.
On to `CC(=O)Nc1ccc(-c2ccc(/C=C3\SC(=N)NC3=O)o2)c(O)c1`, for which the kinase still bound, per cent of control at PIM2 (human) [2] is 1.6%; at PIM1 (human) [3], 1.6%; at CLK2 (human), 4.8%; on CLK1 (human) it was 16%; on STK17A (human) it was 0.7%; on CSNK2A1 (human), 32%. Further, the kinase still bound, per cent of control at TAOK1 (human) is 4%; at TAOK3 (human), 8.6%; at PIM3 (human) it was 2.2%; in experiment [4] it was 25%; at DAPK2 (human), 24%; at MAPK15 (human), 0.4%. Also, the kinase still bound, per cent of control on CAMKK1 (human) worked out at 30%; on DYRK1B (human), 23%; at STK17B (human), 3%; on CDK7 (human), 3.9%; on RPS6KA4 KD2 (human) it was 29%; at MINK1 (human), 33%. The values for the kinase still bound, per cent of control on HIPK1 (human) [5], on TGFBR2 (human) and at CLK4 (human) were 2.6%, 13% and 13%, respectively. The IC50 is 298 nM against PIM2 (human) [6] and 959 nM against PIM1 (human) [7].
As to `Nc1cccc(-c2cc(/C=C3\NC(=O)NC3=O)c[nH]c2=O)c1`, the IC50 against HIPK1 (human) [1] and on HIPK2 (human) was above 10000 nM in each case.
Turning to `Nc1cccc(-c2cc(/C=C3\SC(=S)NC3=O)c[nH]c2=O)c1`, the IC50 at HIPK1 (human) [1] was found to be 100 nM; on HIPK2 (human), 93 nM.
As for `O=C1NC(=O)/C(=C/c2c[nH]c(=O)c(-c3ccc(N4CCN(Cc5ccccc5)CC4)nc3)c2)S1`, the IC50 against HIPK1 (human) [1] is 392 nM; on HIPK2 (human) it was 173 nM.
